US20150259344A1, “IMIDAZOLE DERIVATIVE” (DAINIPPON SUMITOMO PHARMA CO., LTD., priority 2012, published 2015)

Target: T1, human α7 nAChR (Homo sapiens, UniProt P36544)
T1 construct: expressed in transfected cells
Assay: Evaluation of PAM activity with human α7 nACh receptor stably expressing cells (aequorin luminescence, FDSS7000)
Assay type: cell-based
Conditions: ACh at EC20, ratio of RLU (Max-Min) to control wells; for activity at 10 µM: read-out: α7PAM (%) @10 μM; for activity at 1 µM: 1 μM test compound (values marked *, footnote of Table 25), read-out: α7PAM (%) @1 μM
Procedure: Evaluation of PAM activity with human α7 nACh receptor stably expressing cells
(1) Human α7 nAChR stably expressing cells
Human α7 nAChR stably expressing cells were generated and cultured.
Thus, the cells were subcultured.
Seven days after subculturing, the cells were treated with TrypLE Express to collect them when they were about 80% confluent.
On the next day after seeding, Viviren (cat#E649X, Promega, Madison, Wis., USA) was added to the medium so that the final concentration could be 4 μM (15 μL/well). The plates were centrifuged and then placed in the dark for 4 hours at room temperature.
(2) Preparation of the Test Samples
Each of the test compounds was dissolved in DMSO to prepare each test sample at a concentration of 1000-fold the final concentration. To the solution was added Hanks/20 mM HEPES/0.2% BSA (cat#A3803, Sigma, St. Louis, Mo., USA), and the concentration was adjusted to 6-fold the final concentration.
(3) Evaluation of PAM Activity
FDSS7000 (Hamamatsu Photonics) was used to detect the luminescence signal evoked by α7 nAChR stimulation. The cells and a luminescent substrate were put on a plate, and the test sample was added thereto. […] The ratio of the RLU (Max-Min) of the test-compound-containing wells to that of the control wells was defined as PAM activity.

T1 sequence (P36544 23-502): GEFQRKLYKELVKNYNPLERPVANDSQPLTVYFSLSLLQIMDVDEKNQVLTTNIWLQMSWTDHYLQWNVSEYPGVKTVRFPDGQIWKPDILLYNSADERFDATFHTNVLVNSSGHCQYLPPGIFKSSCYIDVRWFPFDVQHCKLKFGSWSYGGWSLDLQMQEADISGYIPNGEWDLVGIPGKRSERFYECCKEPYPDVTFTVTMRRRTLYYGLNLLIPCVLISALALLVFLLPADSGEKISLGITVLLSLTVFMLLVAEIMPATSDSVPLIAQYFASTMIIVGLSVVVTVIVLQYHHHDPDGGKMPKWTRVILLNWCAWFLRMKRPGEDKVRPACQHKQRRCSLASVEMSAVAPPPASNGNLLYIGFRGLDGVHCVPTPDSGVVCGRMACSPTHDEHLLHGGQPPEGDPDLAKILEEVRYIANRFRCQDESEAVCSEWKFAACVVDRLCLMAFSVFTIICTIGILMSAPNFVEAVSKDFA

SMILES: O=C(NC1CCC(F)(F)CC1)N1CCC(n2cnc(-c3cccs3)c2)CC1 [Example 125]
- activity at 10 µM (10 μM test compound): 466%

SMILES: Cc1ccc(-c2cn(C3CCN(C(=O)NC4CCC(F)(F)CC4)CC3)cn2)s1 [Example 126]
- activity at 10 µM (10 μM test compound): 780%

SMILES: COC1CCC(NC(=O)N2CCC(n3cnc(-c4cccs4)c3)CC2)CC1 (stereo not shown) [Example 127]
- activity at 10 µM (10 μM test compound): 170%

SMILES: COC1CCC(NC(=O)N2CCC(n3cnc(-c4ccc(C)s4)c3)CC2)CC1 (stereo not shown) [Example 128]
- activity at 10 µM (10 μM test compound): 188%

SMILES: O=C(NC1CCCCC1)N1CCC(n2cnc(-c3cccs3)c2)CC1 [Example 129]
- α7PAM (%) @10 μM (10 μM test compound): 330%

SMILES: O=C(NC1CCCCC1)N1CCC(n2cnc(-c3ccc(C(F)(F)F)cn3)c2)CC1 [Example 131]
- activity at 10 µM (10 μM test compound): 738%

SMILES: O=C(NC1CCCCC1)N1CCC(n2cnc(-c3ccccn3)c2)CC1 [Example 132]
- activity at 10 µM (10 μM test compound): 151%

SMILES: O=C(NC1CCCCC1)N1CCC(n2cnc(-c3cccnc3)c2)CC1 [Example 133]
- activity at 10 µM (10 μM test compound): 101%

SMILES: O=C(NC1CCCCC1)N1CCC(n2cnc(-c3ccccn3)c2Cl)CC1 [Example 134]
- activity at 10 µM (10 μM test compound): 171%

SMILES: O=C(NC1CCCCC1)N1CCC(n2cnc(-c3ccncc3)c2Cl)CC1 [Example 135]
- activity at 10 µM (10 μM test compound): 154%

SMILES: O=C(NC1CCC(F)(F)CC1)N1CCC(n2cnc(-c3ccncc3)c2Cl)CC1 [Example 136]
- activity at 10 µM (10 μM test compound): 309%

SMILES: O=C(NC1CCC(F)(F)CC1)N1CCC(n2cnc(-c3ccccn3)c2Cl)CC1 [Example 137]
- activity at 10 µM (10 μM test compound): 328%

SMILES: O=C(C1CCC(F)(F)CC1)N1CCC(n2cnc(-c3ccc(C(F)(F)F)cc3)c2)CC1 [Example 138]
- activity at 10 µM (10 μM test compound): 597%

SMILES: O=C(C1CCC(F)(F)CC1)N1CCC(n2cnc(-c3ccc(F)c(F)c3)c2)CC1 [Example 139]
- activity at 10 µM (10 μM test compound): 274%

SMILES: O=C(c1ccc(F)cn1)N1CCC(n2cnc(-c3ccc(F)c(F)c3)c2)CC1 [Example 140]
- activity at 10 µM (10 μM test compound): 127%

SMILES: O=C(c1ccc(F)cn1)N1CCC(n2cnc(-c3ccc(Cl)cc3)c2)CC1 [Example 141]
- activity at 10 µM (10 μM test compound): 253%

SMILES: COC1CCC(C(=O)N2CCC(n3cnc(-c4ccccc4)c3)CC2)CC1 (stereo not shown) [Example 142]
- activity at 10 µM (10 μM test compound): 163%

SMILES: O=C(C1CCC(F)(F)CC1)N1CCC(n2cnc(-c3cccc(F)c3)c2)CC1 [Example 144]
- activity at 10 µM (10 μM test compound): 346%

SMILES: O=C(C1CCC(F)(F)CC1)N1CCC(n2cnc(-c3cccc(OC(F)F)c3)c2)CC1 [Example 145]
- activity at 10 µM (10 μM test compound): 363%

SMILES: O=C(C1CCC(F)(F)CC1)N1CCC(n2cnc(-c3ccc(OC(F)F)cc3)c2)CC1 [Example 146]
- activity at 10 µM (10 μM test compound): 572%

SMILES: CCOc1ccc(-c2cn(C3CCN(C(=O)C4CCC(F)(F)CC4)CC3)cn2)cc1 [Example 147]
- activity at 10 µM (10 μM test compound): 484%

SMILES: COc1ccc(-c2ncn(C3CCN(C(=O)C4CCC(F)(F)CC4)CC3)c2Cl)cc1 [Example 148]
- activity at 10 µM (10 μM test compound): 700%

SMILES: O=C(C1CCC(F)(F)CC1)N1CCC(n2cnc(-c3ccc(F)cc3)c2Cl)CC1 [Example 149]
- activity at 10 µM (10 μM test compound): 862%

SMILES: O=C(C1CCOCC1)N1CCC(n2cnc(-c3cccc(F)c3)c2Cl)CC1 [Example 150]
- activity at 10 µM (10 μM test compound): 137%

SMILES: O=C(C1CCOCC1)N1CCC(n2cnc(-c3ccc(F)cc3)c2Cl)CC1 [Example 151]
- activity at 10 µM (10 μM test compound): 155%

SMILES: O=C(C1CCC(F)(F)CC1)N1CCC(n2cnc(-c3ccccc3)c2Cl)CC1 [Example 152]
- activity at 10 µM (10 μM test compound): 945%

SMILES: N#Cc1c(-c2ccccc2)ncn1C1CCN(C(=O)C2CCCCC2)CC1 [Example 153]
- activity at 10 µM (10 μM test compound): 538%

SMILES: N#Cc1c(-c2ccc(F)cc2)ncn1C1CCN(C(=O)C2CCC(F)(F)CC2)CC1 [Example 154, 1-{1-[(4,4-difluorocyclohexyl)carbonyl]piperidin-4-yl}-4-(4-fluorophenyl)-1H-imidazole-5-carbonitrile]
- activity at 10 µM (10 μM test compound): 644%

SMILES: N#Cc1c(-c2cccc(F)c2)ncn1C1CCN(C(=O)C2CCC(F)(F)CC2)CC1 [Example 155]
- activity at 10 µM (10 μM test compound): 252%

SMILES: N#Cc1c(-c2ccccc2F)ncn1C1CCN(C(=O)C2CCC(F)(F)CC2)CC1 [Example 156, 1-{1-[(4,4-difluorocyclohexyl)carbonyl]piperidin-4-yl}-4-(2-fluorophenyl)-1H-imidazole-5-carbonitrile]
- activity at 10 µM (10 μM test compound): 522%

SMILES: N#Cc1c(-c2ccc(C(F)(F)F)cc2)ncn1C1CCN(C(=O)C2CCC(F)(F)CC2)CC1 [Example 157]
- activity at 10 µM (10 μM test compound): 236%

SMILES: N#Cc1c(-c2cccc(C(F)(F)F)c2)ncn1C1CCN(C(=O)C2CCC(F)(F)CC2)CC1 [Example 158]
- activity at 10 µM (10 μM test compound): 132%

SMILES: N#Cc1c(-c2ccc(Cl)cc2)ncn1C1CCN(C(=O)C2CCC(F)(F)CC2)CC1 [Example 159]
- activity at 10 µM (10 μM test compound): 692%

SMILES: N#Cc1c(-c2cccc(Cl)c2)ncn1C1CCN(C(=O)C2CCC(F)(F)CC2)CC1 [Example 160]
- activity at 10 µM (10 μM test compound): 367%

SMILES: CC(C)(C)C(=O)N[C@H]1CC[C@@H](n2cnc(-c3ccc(C(F)(F)F)cc3)c2)CC1 [Example 161]
- activity at 1 µM: 233%

SMILES: O=C(N[C@H]1CC[C@@H](n2cnc(-c3ccc(C(F)(F)F)cc3)c2)CC1)C1CCC(F)(F)CC1 [Example 162]
- activity at 1 µM: 323%

SMILES: CC(C)(C)C(=O)N[C@H]1CC[C@@H](n2cnc(-c3ccccc3)c2Cl)CC1 [Example 167]
- activity at 10 µM (10 μM test compound): 221%

SMILES: O=C(N[C@H]1CC[C@@H](n2cnc(-c3ccccc3)c2Cl)CC1)C1CCCCC1 [Example 168]
- activity at 10 µM (10 μM test compound): 829%

SMILES: O=C(N[C@H]1CC[C@@H](n2cnc(-c3ccccc3)c2Cl)CC1)C1CCC(F)(F)CC1 [Example 169]
- activity at 10 µM (10 μM test compound): 454%

SMILES: O=C(N[C@H]1CC[C@@H](n2cnc(-c3ccccc3)c2Cl)CC1)C1CCCC1 [Example 170]
- activity at 10 µM (10 μM test compound): 530%

SMILES: O=C(N[C@H]1CC[C@@H](n2cnc(-c3ccccc3)c2Cl)CC1)C1CCC1 [Example 171]
- activity at 10 µM (10 μM test compound): 551%

SMILES: CC(C)(F)C(=O)N[C@H]1CC[C@@H](n2cnc(-c3ccccc3)c2Cl)CC1 [Example 172]
- activity at 10 µM (10 μM test compound): 480%

SMILES: O=C(N[C@H]1CC[C@@H](n2cnc(-c3ccccc3)c2Cl)CC1)C1(C(F)(F)F)CC1 [Example 174]
- activity at 10 µM (10 μM test compound): 224%

SMILES: CC(C)(F)C(=O)N[C@H]1CC[C@@H](n2cnc(-c3cccc(F)c3)c2Cl)CC1 [Example 175]
- activity at 10 µM (10 μM test compound): 397%

SMILES: O=C(N[C@H]1CC[C@@H](n2cnc(-c3cccc(F)c3)c2Cl)CC1)C1CCC1 [Example 176]
- activity at 1 µM: 258%

SMILES: O=C(N[C@H]1CC[C@@H](n2cnc(-c3cccc(F)c3)c2Cl)CC1)C1CCCC1 [Example 177]
- activity at 1 µM: 389%

SMILES: COc1ccc(-c2ncn([C@H]3CC[C@@H](NC(=O)C(C)(C)F)CC3)c2Cl)cc1Cl [Example 178]
- activity at 10 µM (10 μM test compound): 775%

SMILES: COc1ccc(-c2ncn([C@H]3CC[C@@H](NC(=O)C4CCC4)CC3)c2Cl)cc1Cl [Example 179]
- activity at 10 µM (10 μM test compound): 269%

SMILES: COc1ccc(-c2ncn([C@H]3CC[C@@H](NC(=O)C4CCCC4)CC3)c2Cl)cc1Cl [Example 180]
- activity at 10 µM (10 μM test compound): 375%

SMILES: O=C(N[C@H]1CC[C@@H](n2cnc(-c3ccc(F)cc3)c2Cl)CC1)C1CCC1 [Example 181]
- activity at 10 µM (10 μM test compound): 641%

SMILES: O=C(N[C@H]1CC[C@@H](n2cnc(-c3ccc(F)cc3)c2Cl)CC1)C1CCCC1 [Example 182]
- activity at 1 µM: 682%

SMILES: O=C(N[C@H]1CC[C@@H](n2cnc(-c3ccc(F)cc3)c2Cl)CC1)c1ccc(F)cc1 [Example 184]
- activity at 1 µM: 303%

SMILES: CC(C)(F)C(=O)N[C@H]1CC[C@@H](n2cnc(-c3ccccc3F)c2Cl)CC1 [Example 185]
- activity at 10 µM (10 μM test compound): 576%

SMILES: COc1cc(-c2ncn([C@H]3CC[C@@H](NC(=O)C(C)(C)F)CC3)c2Cl)ccc1F [Example 186]
- activity at 10 µM (10 μM test compound): 254%

SMILES: O=C(N[C@H]1CC[C@@H](n2cnc(-c3ccccc3)c2Cl)CC1)C1CC(F)(F)C1 [Example 188]
- activity at 10 µM (10 μM test compound): 581%

SMILES: COc1cc(-c2ncn([C@H]3CC[C@@H](NC(=O)C4CCC4)CC3)c2Cl)ccc1F [Example 191]
- activity at 1 µM: 364%

SMILES: COc1cc(-c2ncn([C@H]3CC[C@@H](NC(=O)C4CCC4)CC3)c2Cl)c(Cl)cc1F [Example 192]
- activity at 1 µM: 274%

SMILES: CC(C)(F)C(=O)N[C@H]1CC[C@@H](n2cnc(-c3cccc(C(F)(F)F)c3)c2Cl)CC1 [Example 193]
- activity at 10 µM (10 μM test compound): 187%

SMILES: O=C(N[C@H]1CC[C@@H](n2cnc(-c3cccc(C(F)(F)F)c3)c2Cl)CC1)C1CCC1 [Example 195]
- activity at 10 µM (10 μM test compound): 142%

SMILES: O=C(N[C@H]1CC[C@@H](n2cnc(-c3ccc(C(F)(F)F)cc3)c2Cl)CC1)C1CCC1 [Example 196]
- activity at 10 µM (10 μM test compound): 498%

SMILES: CC(C)(F)C(=O)N[C@H]1CC[C@@H](n2cnc(-c3ccccc3)c2C#N)CC1 [Example 197, N-[cis-4-(5-cyano-4-phenyl-1H-imidazol-1-yl)cyclohexyl]-2-fluoro-2-methylpropanamide]
- activity at 10 µM (10 μM test compound): 637%

SMILES: N#Cc1c(-c2ccccc2)ncn1[C@H]1CC[C@@H](NC(=O)C2CCC2)CC1 [Example 198]
- activity at 10 µM (10 μM test compound): 799%

SMILES: CC(C)(C)C(=O)N[C@H]1CC[C@@H](n2cnc(-c3ccc(C(F)(F)F)cc3)c2C#N)CC1 [Example 199]
- activity at 1 µM: 230%

SMILES: CC(C)(C)C(=O)N[C@H]1CC[C@@H](n2cnc(-c3cccc(C(F)(F)F)c3)c2C#N)CC1 [Example 200]
- activity at 1 µM: 180%
